Results from US10590123B2, “Pesticidally active amide heterocyclic derivatives with sulphur containing substituents” (SYNGENTA PARTICIPATIONS AG, priority 2014, dated 2020).

Experiments:
[1] = test system: Spodoptera littoralis (Egyptian Cotton Leaf Worm); test: Example B1: Activity against Spodoptera littoralis, sprayed cotton leaf discs; type: in vivo; conditions: foliar, 72 h, application rate 200 ppm, L1 larvae, 3 days after infestation, read-out: control in at least one of the three categories (mortality, anti-feedancy or growth inhibition)
Experimental: Example B1: Activity Against Spodoptera littoralis (Egyptian Cotton Leaf Worm)
Cotton leaf discs were placed on agar in 24-well microtiter plates and sprayed with aqueous test solutions prepared from 10′000 ppm DMSO stock solutions. After drying the leaf discs were infested with five L1 larvae. The samples were assessed for mortality, anti-feedant effect, and growth inhibition in comparison to untreated samples 3 days after infestation. Control of Spodoptera littoralis by a test sample is when at least one of mortality, anti-feedant effect, and growth inhibition is higher than the untreated sample.

[2] = test system: Thrips tabaci (Onion Thrips); test: Example B11: Activity against Thrips tabaci, sprayed sunflower leaf discs; type: in vivo; conditions: foliar, 144 h, application rate 200 ppm, thrips population of mixed ages, 6 days after infestation
Experimental: Example B11: Activity Against Thrips tabaci (Onion Thrips)
(§1) Sunflower leaf discs were placed on agar in 24-well microtiter plates and sprayed with aqueous test solutions prepared from 10′000 ppm DMSO stock solutions. After drying the leaf discs were infested with a thrips population of mixed ages. The samples were assessed for mortality 6 days after infestation.

[3] = test system: Myzus persicae (Green Peach Aphid); test: Example B8: Activity against Myzus persicae, sprayed sunflower leaf discs; type: in vivo; conditions: foliar, 144 h, application rate 200 ppm, aphid population of mixed ages, 6 days after infestation
Experimental: Example B8: Activity Against Myzus persicae (Green Peach Aphid)
Sunflower leaf discs were placed on agar in a 24-well microtiter plate and sprayed with aqueous test solutions prepared from 10′000 ppm DMSO stock solutions. After drying, the leaf discs were infested with an aphid population of mixed ages. The samples were assessed for mortality 6 days after infestation.

[4] = test system: Spodoptera littoralis (Egyptian Cotton Leaf Worm); test: Example B2: Activity against Spodoptera littoralis, systemic via lettuce roots in agar; type: in vivo; conditions: 144 h, application rate 12.5 ppm, 6 days after infestation, read-out: control in at least one of the three categories (mortality, anti-feedancy or growth inhibition)
Source text: Example B2: Activity Against Spodoptera littoralis (Egyptian Cotton Leaf Worm)
Test compounds were applied by pipette from 10′000 ppm DMSO stock solutions into 24-well plates and mixed with agar. Lettuce seeds were placed on the agar and the multi well plate was closed by another plate which contains also agar. After 7 days the roots have absorbed the compound and the lettuce has grown into the lid plate. The lettuce leafs were now cut off into the lid plate. Spodoptera eggs were pipetted through a plastic stencil on a humid gel blotting paper and the plate closed with it.
The samples were assessed for mortality, anti-feedant effect and growth inhibition in comparison to untreated samples 6 days after infestation.

[5] = test system: Diabrotica Balteata (Corn Root Worm); test: Example B4: Activity against Diabrotica balteata, sprayed maize sprouts; type: in vivo; conditions: 96 h, application rate 200 ppm, L2 larvae, 4 days after infestation, read-out: effect in at least one of the two categories (mortality or growth inhibition)
Experimental: Example B4: Activity Against Diabrotica Balteata (Corn Root Worm)
Maize sprouts, placed on an agar layer in 24-well microtiter plates were treated with aqueous test solutions prepared from 10′000 ppm DMSO stock solutions by spraying. After drying, the plates were infested with L2 larvae (6 to 10 per well). The samples were assessed for mortality and growth inhibition in comparison to untreated samples 4 days after infestation.

[6] = test system: Plutella xylostella (Diamond Back Moth); test: Example B3: Activity against Plutella xylostella, artificial diet; type: in vivo; conditions: 120 h, application rate 200 ppm, L2 larvae, 5 days after infestation, read-out: effect in at least one of the two categories (mortality or growth inhibition)
Experimental: Example B3: Activity Against Plutella xylostella (Diamond Back Moth)
24-well microtiter plates with artificial diet were treated with aqueous test solutions prepared from 10′000 ppm DMSO stock solutions by pipetting. After drying, the plates were infested with L2 larvae (10 to 15 per well). The samples were assessed for mortality and growth inhibition in comparison to untreated samples 5 days after infestation.

[7] = test system: Euschistus heros (Neotropical Brown Stink Bug); test: Example B7: Activity against Euschistus heros, sprayed soybean leaf; type: in vivo; conditions: 120 h, application rate 200 ppm, N-2 nymphs, 5 days after infestation
Experimental: Example B7: Activity Against Euschistus heros (Neotropical Brown Stink Bug)
Soybean leaf on agar in 24-well microtiter plates were sprayed with aqueous test solutions prepared from 10′000 ppm DMSO stock solutions. After drying the leaf were infested with N-2 nymphs. The samples were assessed for mortality 5 days after infestation.

[8] = test system: Frankliniella occidentalis (Western Flower Thrips); test: Example B5: Activity against Frankliniella occidentalis, sprayed sunflower leaf discs; type: in vivo; conditions: foliar, 168 h, application rate 200 ppm, population of mixed ages, 7 days after infestation
Experimental: Example B5: Activity Against Frankliniella occidentalis (Western Flower Thrips)
as §1, with “Frankliniella” for “thrips”, “7” for “6”

[9] = test system: Bemisia tabaci (Cotton White Fly); test: Example B6: Activity against Bemisia tabaci, sprayed cotton leaf discs; type: in vivo; conditions: foliar, 144 h, application rate 200 ppm, adult white flies, 6 days after incubation
Experimental: Example B6: Activity Against Bemisia tabaci (Cotton White Fly)
Cotton leaf discs were placed on agar in 24-well microtiter plates and sprayed with aqueous test solutions prepared from 10′000 ppm DMSO stock solutions. After drying the leaf discs were infested with adult white flies. The samples were checked for mortality 6 days after incubation.

[10] = test system: Tetranychus urticae (Two-Spotted Spider Mite); test: Example B12: Activity against Tetranychus urticae, sprayed bean leaf discs; type: in vivo; conditions: foliar, 192 h, application rate 200 ppm, mixed population (mobile stages), 8 days after infestation
Experimental: Example B12: Activity Against Tetranychus urticae (Two-Spotted Spider Mite)
as §1, with “Bean” for “Sunflower”, “discs” for “discs were placed”, “were” for “and”, “mite” for “thrips”, “on mixed population (mobile stages) 8” for “6”

melting point [°C] | SMILES | percent control (mortality, anti-feedant effect or growth inhibition) at 200 ppm [1] [%] | mortality at 200 ppm [2] [%] | mortality at 200 ppm [3] [%] | percent control (mortality, anti-feedant effect or growth inhibition) at 12.5 ppm [4] [%] | percent effect (mortality or growth inhibition) at 200 ppm [5] [%] | percent effect (mortality or growth inhibition) at 200 ppm [6] [%] | mortality at 200 ppm [7] [%] | mortality at 200 ppm [8] [%] | mortality at 200 ppm [9] [%] | mortality at 200 ppm [10] [%]
242 to 244 | CCS(=O)(=O)c1cc(-c2cc(F)cc(F)c2)cnc1C(=O)Nc1nnc(C(F)(F)C(F)(F)F)s1 |  |  |  |  |  |  |  |  |  | 
 | CCS(=O)(=O)c1cc(-c2ccc(Cl)cc2)cnc1C(=O)N(C)c1nnc(C(F)(F)C(F)(F)F)s1 [Compound P14] | ≥ 80 | ≥ 80 | ≥ 80 | ≥ 80 | ≥ 80 | ≥ 80 | ≥ 80 |  |  | 
 | CCS(=O)(=O)c1cc(-c2ccc(F)cc2)cnc1C(=O)N(C)c1nnc(C(F)(F)F)s1 [Compound P32] | ≥ 80 |  | ≥ 80 | ≥ 80 | ≥ 80 | ≥ 80 | ≥ 80 | ≥ 80 | ≥ 80 | 
213 to 215 | CCS(=O)(=O)c1cc(-c2cccc(Cl)c2)cnc1C(=O)N(C)c1nnc(C(F)(F)F)s1 |  |  |  |  |  |  |  |  |  | 
 | CCS(=O)(=O)c1cc(-c2ccccc2)cnc1C(=O)N(C)c1nnc(C(F)(F)F)s1 [Compound P5, 3-ethylsulfonyl-N-methyl-5-phenyl-N-[5-(trifluoromethyl)-1,3,4-thiadiazol-2-yl]pyridine-2-carboxamide] | ≥ 80 | ≥ 80 | ≥ 80 | ≥ 80 | ≥ 80 | ≥ 80 | ≥ 80 | ≥ 80 |  | 
184 to 187 | CCSc1cc(-c2ccc(Cl)cc2)cnc1C(=O)Nc1nnc(C(F)(F)C(F)(F)F)s1 |  |  |  |  |  |  |  |  |  | 
174 to 176 | CCS(=O)(=O)c1cc(-c2ccc(C(F)(F)F)cc2)ccc1C(=O)N(C)c1nnc(C(F)(F)F)s1 |  |  |  |  |  |  |  |  |  | 
 | CCS(=O)(=O)c1cc(-c2cccc(Cl)n2)cnc1C(=O)N(C)c1nnc(C(F)(F)F)s1 [Compound P49] | ≥ 80 |  |  |  | ≥ 80 | ≥ 80 | ≥ 80 |  |  | ≥ 80
 | CCS(=O)(=O)c1cc(-c2ccc(Cl)c(Cl)c2)cnc1C(=O)N(C)c1nnc(C(F)(F)F)s1 [Compound P36] | ≥ 80 |  |  |  | ≥ 80 | ≥ 80 | ≥ 80 |  |  | ≥ 80
 | CCS(=O)(=O)c1cc(-c2cc(C#N)ccn2)cnc1C(=O)N(C)c1nnc(C(F)(F)F)s1 [Compound P61] | ≥ 80 |  | ≥ 80 | ≥ 80 | ≥ 80 | ≥ 80 | ≥ 80 |  | ≥ 80 | ≥ 80
 | CCS(=O)(=O)c1cc(-c2ccc(Cl)cc2)cnc1C(=O)N(C)c1nnc(C(F)(F)F)s1 [Compound P2, 5-(4-chlorophenyl)-3-ethylsulfonyl-N-methyl-N-[5-(trifluoromethyl)-1,3,4-thiadiazol-2-yl]pyridine-2-carboxamide] | ≥ 80 |  |  | ≥ 80 | ≥ 80 | ≥ 80 |  | ≥ 80 | ≥ 80 | 
 | CCS(=O)(=O)c1cc(-c2ccc(Cl)cn2)cnc1C(=O)N(C)c1nnc(C(F)(F)F)s1 [Compound P52] | ≥ 80 |  | ≥ 80 | ≥ 80 | ≥ 80 | ≥ 80 | ≥ 80 | ≥ 80 | ≥ 80 | 
254 to 256 | CCSc1cc(-c2ccc(C(F)(F)F)cc2)cnc1C(=O)Nc1nnc(C(F)(F)C(F)(F)F)s1 |  |  |  |  |  |  |  |  |  | 
159 to 161 | CCS(=O)(=O)c1cc(-c2cc(F)cc(F)c2)cnc1C(=O)N(C)c1nnc(C(F)(F)C(F)(F)F)s1 |  |  |  |  |  |  |  |  |  | 
 | CCS(=O)(=O)c1cc(-c2cc(C(F)(F)F)ccn2)cnc1C(=O)N(C)c1nnc(C(F)(F)F)s1 [Compound P65] | ≥ 80 | ≥ 80 | ≥ 80 |  | ≥ 80 | ≥ 80 | ≥ 80 |  |  | 
 | CCS(=O)(=O)c1cc(-c2cc(F)ccc2F)cnc1C(=O)N(C)c1nnc(C(F)(F)F)s1 [Compound P33] | ≥ 80 |  | ≥ 80 | ≥ 80 | ≥ 80 | ≥ 80 | ≥ 80 |  | ≥ 80 | ≥ 80
 | CCS(=O)(=O)c1cc(C2(C#N)CC2)cnc1C(=O)N(C)c1nnc(C(F)(F)C(F)(F)F)s1 [Compound P20, 5-(1-cyanocyclopropyl)-3-ethylsulfonyl-N-methyl-N-[5-(1,1,2,2,2-pentafluoroethyl)-1,3,4-thiadiazol-2-yl]pyridine-2-carboxamide] | ≥ 80 | ≥ 80 | ≥ 80 | ≥ 80 | ≥ 80 | ≥ 80 | ≥ 80 | ≥ 80 | ≥ 80 | 
 | CCS(=O)(=O)c1cc(-c2ccnc(F)c2)cnc1C(=O)N(C)c1nnc(C(F)(F)F)s1 [Compound P56] | ≥ 80 |  | ≥ 80 | ≥ 80 | ≥ 80 | ≥ 80 | ≥ 80 |  | ≥ 80 | 
